# Earlier results in patent publication US9421238B2 (priority 2013, dated 2016).
# Where two headings read alike, the source gives them in different places.
# Conditions: rat, CO-60 in liver
structure (smiles),measurement,setting,value
"N[C@@H](CCC(=O)N[C@@H](CS)C(=O)NCC(=O)O)C(=O)O [Plain glutathione, glutathione]",removal of toxin,intravenous administration,64%
same,removal of toxin,oral administration,0%
same,toxin remained/remaining,oral administration,100%
